# From patent US8299028B2, “Chimeric peptide antagonist for GPCR135 or GPCR142” (Janssen Pharmaceutica NV, priority 2007, dated 2012)
# Experiments:
# satiated Wistar rats = assay: Food intake in satiated Wistar rats after i.c.v. administration; format: in vivo, rat; conditions: 10 μg i.c.v.
# Procedure: FIG. 6 illustrates food consumption in satiated Wistar rats during the first hour of the test session (i.e., Day 2) following i.c.v. administration of vehicle (5 μL)+vehicle (5 μL), vehicle (5 μl)+R3/I5 (10 μg), R3(BΔ23-27)R/I5 (10 μg)+vehicle (5 μl), and R3(BΔ23-27)R/I5 (10 μg)+R3/I5 (10 μg) (mean±SEM; n=5-6 per group) (A).
# Experimentally naïve, male Wistar rats (Charles River, Wilmington, Mass.) weighing 200-225 grams at the time of arrival were used. The animals were initially housed at two per cage and given a one-week acclimation period to the vivarium prior to i.c.v. cannula implantation. All animals had free access to food and water throughout the experiment and were not food deprived prior to behavioral testing. The animal colony was maintained at 22±2° C. during a 12-hr light/12-hr dark illumination cycle with lights on from 0600 to 1800 hours. […]
# A predetermined amount of standard rat chow (Formulab Diet No. 5008, which contained 23.0% protein and 6.5% fat) was placed in the food hopper at the start of the 4 hr session(s). The amount of food remaining in the food hopper was determined by subtracting the weight of the food at 1 and 4 hrs from the initial food weight (i.e., weight of the food at the start of the session). Food crumbs detected on the floor of the apparatus were included in the determination of food weights. […]
# [1] = target: T1, endogenous GPCR135 from rat brain slices (Rattus norvegicus, UniProt Q5Y987); assay: Autoradiography, displacement of 125I-R3/I5 binding on rat brain slices; conditions: at 10 nM
# T1 construct: using endogenous GPCR135 from rat brain slices in autoradiographic studies; from tissue; host or cells: rat brain slices
# T1 sequence (Q5Y987 1-469): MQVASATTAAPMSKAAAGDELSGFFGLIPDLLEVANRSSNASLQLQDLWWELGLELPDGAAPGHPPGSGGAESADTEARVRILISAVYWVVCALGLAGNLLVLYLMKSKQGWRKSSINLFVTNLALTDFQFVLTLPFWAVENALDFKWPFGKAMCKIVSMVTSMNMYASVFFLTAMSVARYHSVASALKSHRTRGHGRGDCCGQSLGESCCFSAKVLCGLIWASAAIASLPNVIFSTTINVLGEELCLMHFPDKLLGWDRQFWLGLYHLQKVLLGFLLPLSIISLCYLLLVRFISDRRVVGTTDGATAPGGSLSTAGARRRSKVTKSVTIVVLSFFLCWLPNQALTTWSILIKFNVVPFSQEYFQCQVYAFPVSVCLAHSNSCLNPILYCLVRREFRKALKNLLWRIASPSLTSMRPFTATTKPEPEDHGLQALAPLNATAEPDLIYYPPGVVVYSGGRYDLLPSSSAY
# Procedure: FIG. 5 provides autoradiograms of ^125I-R3/I5 binding sites in the rat brain (A) with competition by relaxin-3 (10 nM, B) or R3(BΔ23-27)R/I5 (10 nM, C), and a dose-response curve for R3(BΔ23-27)R/I5 as the competitor in the binding assay on rat brain slices (D). A dose-response curve for human relaxin-3 is included for comparison (D). Nonspecific binding was determined using 1 μM unlabeled relaxin-3.
# R3(BΔ23-27)R/I5 peptide was evaluated pharmacologically using endogenous GPCR135 from rat brain slices in autoradiographic studies as described by Sutton et al., 2004. Briefly, ^125I-R3/I5 was applied in a binding buffer to rat brain slices. Unlabeled human relaxin-3 or R3(BΔ23-27)R/I5 was used at various concentrations as competitors to displace GPCR135 binding of ^125I-R3/I5.
Substance,total food intake over 4 hours (satiated Wistar rats; 4 hours),"food intake, first hour (satiated Wistar rats; first hour)",displacement of 125I-R3/I5 binding sites in rat brain sections [1]
R3/I5: Chimeric peptide of relaxin-3 B-chain (SEQ ID NO:12) and INSL5 A-chain (SEQ ID NO:19); selective GPCR135 agonist (beta RAAPYGVRLCGREFIRAVIFTCGGSRW; alpha EDLQTLCCTDGCSMTDLSALC; INSL5 A-chain; listed as Homo Sapiens),food intake was stimulated,food intake was stimulated,
"Relaxin-3: Wild type human relaxin-3, B-chain SEQ ID NO:12, A-chain SEQ ID NO:13; positive control",,,Full displacement
